# PMC10865825, “Sugar-binding and split domain combinations in repeats-in-toxin adhesins from Vibrio cholerae and Aeromonas veronii mediate cell-surface recognition and hemolytic activities” (mBio, 2024)
# Biological target: T1, AvSBD-UKD (sugar-binding domain and split Ig-like domain of the A. veronii RTX adhesin, WP_103422706.1)
# T1 construct: AvSBD-UKD, 40 kDa ortholog construct (WP_103422706.1), spanning SBD and UKD
# Experiment: isothermal titration calorimetry ([…]°C, one-site model, N = […])
# Set-up: species or system Aeromonas veronii
smiles,measurement,value
C[C@@H]1OC(O)[C@@H](O)[C@H](O)[C@@H]1O (stereo partly drawn) [L-fucose],Kd,15 µM
